What was measured:
[1] = target: T1, HsPDF (Homo sapiens, UniProt Q9HBH1); experiment: FP binding assay (fluorescence polarization, probe SKI 267088), specificity profiling and dose response; conditions: for activity toward HsPDF, FP assay: specificity profiling / dose response
T1 construct: A 63 amino acid N-terminally truncated human peptide deformylase (HsPDF); 6His (C); made in house; host or cells: E. coli BL21 (DE3), co-transformed with the GroES/EL chaperone plasmid
T1 sequence (Q9HBH1 64-243 limits assumed): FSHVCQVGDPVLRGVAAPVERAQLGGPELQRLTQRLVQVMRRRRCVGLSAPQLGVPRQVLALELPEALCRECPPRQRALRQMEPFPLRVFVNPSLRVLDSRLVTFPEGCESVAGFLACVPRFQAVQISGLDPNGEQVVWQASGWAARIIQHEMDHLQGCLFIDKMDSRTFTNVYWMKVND
Protocol: Specificity profiling was performed on the newly synthesized benzofuran-4,5-diones using the aforementioned FP profiling method (Antczak et al., J. Biomol. Screen 2008, 13, 285-294).
Compounds or high/low controls were added to the wells at a volume of 2 μL. […] High controls consisted of 1% DMSO (v/v). MBP-HsPDF or the metalloprotease to be tested was diluted in the assay buffer (25 mM Hepes, 50 mM NaCl, 0.005% Tween 20, pH 7.5), and 10 μL where added to the 384-well microplates (Low Volume Round Bottom NBS Treated, Corning) to achieve a final concentration of 1 μM. After addition of MBP-HsPDF to the tested compounds, the 384-well microplates were preincubated for one hour at room temperature. Then 8 μL of the probe SKI 267088 in solution in assay buffer was added to the wells at a final concentration of 5 nM. After one hour incubation at room temperature, the fluorescence polarization was read using the Amersham LEADseeker™ Multimodality Imaging System equipped with Cy3 excitation/emission filters and Cy3 FP epi-mirror. Quench tests were performed in duplicate by measuring the fluorescence polarization of wells containing the probe, pre- and post-addition of the compounds at 100 μM.
In each assay, the signal inhibition induced by the compounds was expressed as a percentage compared to high and low controls located on the same plate, as defined as % Inhibition=(high control average−read value)/(high control average−low control average)×100. The dose response was assessed in duplicate and using 12 point doubling dilutions with 100 μM compound concentration as the upper limit. The dose response curve for each set of data was fitted separately, and the two IC50 values obtained were averaged.

[2] = system: EcPDF
Protocol: Head of the field: EcPDF %I 100uM
(§4) Specificity profiling of the derivatives of benzofuran-4,5-diones.
Where the first naming reader finds the target: head: EcPDF %I 100uM

[3] = system: APN; experiment: APN %I 100uM
Protocol: (§1) Table printed on a drawing sheet, Figure 5
Head of the field: APN %I 100uM
(§2) Footnotes: -26 124 % inhibition
(§3) The patent's description of the figure: FIG. 5.
Where the first naming reader finds the target: head: APN %I 100uM

[4] = In vivo toxicity of benzofuran-4,5-diones; conditions: i.p. twice a day for four days, 1 to 10 mg/kg, monitored 14 days
Protocol: Lead compound SKC-BF-13 and another newly synthesized derivative SKC-BF-02 were selected in order to assess the in vivo toxicity of benzofuran-4,5-diones. Three mice per group were treated with BF-13 at three doses (i.e., 1, 5 and 10 mg/kg) or with SKC-BF-02 at two doses (i.e., 1 and 10 mg/kg). A control group of two mice were treated with the vehicle (i.e., 20% DMSO v/v). Mice were treated twice a day for four days via intraperitoneal administration. Their weight was monitored along with any other signs of toxicity for fourteen days.
ICR/SCID male mice about three weeks old were used in this study. Three mice per group were treated with BF-13 at three doses (i.e., 1, 5 and 10 mg/kg) or with SKC-BF-02 at two doses (i.e., 1 and 10 mg/kg). A control group of two mice were treated with the vehicle (20% DMSO v/v). Mice were treated twice a day for four days via intraperitoneal administration. Their weight was monitored as well as any other sign of toxicity for 14 days.
SKI 396848 (SKC-BF-12) and SKI 396840 (SKC-BF-02) were synthesized during the first round of exploratory chemistry to assess the in vivo toxicity of benzofuran-4,5-diones (as shown in FIG. 8). Three ICR/SCID male mice per group were treated with SKI 396848 at three doses: 1, 5 and 10 mg/kg or with SKI 396840 at two doses: 1 and 10 mg/kg. A control group of two mice was treated with the vehicle (20% DMSO v/v). Mice were treated twice a day for four days i.p. Their weight was monitored as well as any other sign of toxicity for 14 days. One treated mouse per group was evaluated by a pathologist.

[5] = target: T2, HsPDF (Homo sapiens, UniProt Q9HBH1); experiment: HsPDF IC50
T2 construct: A 63 amino acid N-terminally truncated human peptide deformylase (HsPDF); 6His (C); made in house; host or cells: E. coli BL21 (DE3), co-transformed with the GroES/EL chaperone plasmid
From the text: Table printed on a drawing sheet, Figure 7
Head of the field: HsPDF IC50
The patent's description of the figure: FIG. 7. Cytotoxicity profiling for the thirty-three (33) derivatives of benzofuran-4,5-diones toward […]. The IC50 in μM for each compound toward each cell line is summarized as a heat map.
Where the first naming reader finds the target: head: HsPDF IC50

[6] = system: EcPDF; remark: listed apart in the source
Protocol: Head of the field: EcPDF %I 10uM
as §4
Where the first naming reader finds the target: head: EcPDF %I 10uM

[7] = system: MMP-1; experiment: MMP-1 %I 100uM
Protocol: as §1
Head of the field: MMP-1 %I 100uM
as §2, §3
Where the first naming reader finds the target: head: MMP-1 %I 100uM

[8] = system: panel of cancer cell lines; experiment: Cytotoxicity assay (Alamar Blue), primary hits and first generation derivatives; assay type: cell-based, human; conditions: first generation, panel of nine cancer cell lines
Protocol: Cytotoxicity assays were performed in order to profile the thirty-three newly synthesized benzofuran-4,5-dione derivatives on a panel of nine cancer cell lines. A heat map summarizes the calculated IC50s ([…]). Twelve out of thirteen derivatives potent toward HsPDF were also cytotoxic toward several cancer cell lines (FIG. 7).
The cell lines HL-60 (human acute promyelocytic leukemia), Jurkat (human acute T cell leukemia), Molt3 (acute lymphoblastic leukemia), CWR22 (prostate carcinoma), HEK293 (human embryonic kidney), K562 (human chronic myeloid leukemia lymphoblasts), Y79 (human retinoblastoma) were obtained from the ATCC, and cultured following ATCC recommendations. The cell line NCEB-1 (human non-hodgkin lymphoma) was obtained from Dr. O'Connor (Sloan-Kettering Institute). The cell line HL-60/RV+ (a P-glycoprotein-overexpressing multi-drug resistant HL-60 variant selected by continuous exposure to vincristine) was described elsewhere (Weisburg et al., J. Biol. Chem. 1999, 274, 10877-10888). The cell line ALL-3 (acute lymphoblastic leukemia isolated from a patient treated at MSKCC and characterized as Philadelphia chromosome positive) was obtained from Dr. Mark Frattini (MSKCC). The assay used for the cytotoxicity studies is based on the dye resazurin and commercially sold as Alamar Blue (O'Brien et al., Eur. J. Biochem. 2000, 267, 5421-5426). […]

[9] = system: panel of eight cancer cell lines; experiment: Cytotoxicity profiling of 26 second generation derivatives (Alamar Blue viability assay, nuclei count); assay type: cell-based, human
Protocol: Cytotoxicity profiling for the 26 newly synthesized benzofuran-4,5-diones derivatives was performed on a panel of eight cancer cell lines.
The cell lines HL-60 (human acute promyelocytic leukemia), Jurkat (human acute T cell leukemia), Molt3 (acute lymphoblastic leukemia), CWR22 (prostate carcinoma), K562 (human chronic myeloid leukemia lymphoblasts), and Y79 (human retinoblastoma) were obtained from the ATCC, and cultured following ATCC recommendations. The cell line HL-60/RV+ (a P-glycoprotein-overexpressing multi-drug resistant HL-60 variant selected by continuous exposure to vincristine) was described elsewhere (Weisburg J H, Roepe P D, Dzekunov S, Scheinberg D A: Intracellular pH and multidrug resistance regulate complement-mediated cytotoxicity of nucleated human cells. J Biol Chem 1999; 274:10877-10888). The cell line ALL-3 (acute lymphoblastic leukemia isolated from a patient treated at MSKCC and characterized as Philadelphia chromosome positive) was obtained from Dr. Mark Frattini (MSKCC). The viability assay we used in this study is based on the dye resazurin and commercially sold as Alamar Blue (O'Brien J, Wilson I, Orton T, Pognan F: Investigation of the Alamar Blue (resazurin) fluorescent dye for the assessment of mammalian cell cytotoxicity. Eur J Biochem 2000; 267:5421-5426). Cells were added in 45 μL medium to the pre-plated compounds in 5 μL of 1% DMSO (v/v). After 72 h incubation was added 5 μL Alamar Blue. […] Plates were then fixed and nuclei were stained using Hoechst for the nuclear count proliferation assay. Imaging for Hoechst staining of nuclei count were acquired with an IN Cell Analyzer 2000 epifluorescence automated microscope ([…]) (GE Healthcare, Piscataway, N.J.) equipped with a 4× objective, using D360/40 excitation filter (360 nm excitation peak; +/−40 nm bandpass), HQ535/50 emission filter (535 nm emission peak; +/−50 nm bandpass) and Q505LP dichroic, and exposing fields for 200 milliseconds in the blue channel. Image analysis was conducted with the IN Cell Developer 1.7 software (GE Healthcare) using custom-developed analysis modules. The analysis module used for nuclei count performs object segmentation in the blue channel to automatically define and count the number of nuclei. Data is reported as the sum of imaged nuclei.
In addition of the Alamar Blue viability assay readout, for the adherent cell lines of this panel (CWR22 and Meso47) we performed a direct nuclei count to assess the effect of the novel derivatives on cell proliferation.

[10] = target: T1, HsPDF; experiment: FLUO functional assay (fluorescamine, substrate fMAHA); assay type: biochemical; conditions: 0.5 μM HsPDF, upper limit 10 μM compound
Protocol: High controls consisted of 1% DMSO (v/v). […] The deformylation reaction mixture was incubated for one hour at room temperature. A separate set of plates containing 3 μL of fluorescamine at 1 mg/mL in 100% DMSO was prepared for the labeling step. Then, 17 μL of the reaction mixture from the original set of plates was transferred to the plates containing the fluorescamine solution for the labeling step. The readout was performed on a Perkin Elmer VICTOR^3 V™ Multi label counter, using an excitation wavelength of 355 nm, and an emission wavelength of 460 nm. […] Compounds inducing a variation of fluorescence greater than 20% were flagged as optically active compounds.
High controls consisted of 1% DMSO (v/v). […] The deformylation reaction mixture was incubated for one hour at room temperature. A separate set of plates containing 3 μL of fluorescamine at 1 mg/mL in 100% DMSO was prepared for the labeling step. Then, 17 μL of the reaction mixture from the original set of plates was transferred to the plates containing the fluorescamine solution for the labeling step. The readout was performed on a Perkin Elmer VICTOR3 V™ Multi label counter, using an excitation wavelength of 355 nm, and an emission wavelength of 460 nm.

Q: What does the source list for `O=C1C=Cc2occ(C(=O)c3ccccc3)c2C1=O` [SKC-BF-01, 3-Benzoyl-benzofuran-4,5-dione]?
A: IC50 ([1]; dose response, 12 point doubling dilutions, upper limit 100 μM): 59 µM; selectivity for HsPDF in a panel of metalloproteases ([1]; panel HsPDF, EcPDF, APN and MMP-1): most selective HsPDF inhibitors; EcPDF %I 100uM [2]: 32 %I; APN %I 100uM [3]: 5 %I

Q: With `COc1ccc(C(=O)c2coc3c2C(=O)C(=O)C=C3)cc1` [SKC-BF-02, 3-(4-Methoxy-benzoyl)-benzofuran-4,5-dione] as the molecule, how does the “signs of toxicity in vivo (weight and other signs)” value [4] read?
A: The value was “none of the treatments induced any sign of toxicity”.

Q: And the “signs of toxicity in vivo (weight and other signs)” value ([4]; listed as SKI 396840)?
A: The value was “None of the treatments were found to induce any signs of toxicity”.

Q: For `COc1ccc(C(=O)c2coc3c2C(=O)C(=O)C(Cl)=C3)cc1` [SKC-BF-04, 6-Chloro-3-(4-methoxybenzoyl)-benzofuran-4,5-dione], which IC50 [5] is on record?
A: Its IC50 is 40 µM.

Q: And the “EcPDF %I 10uM” value [6]?
A: The value was -6 %I.

Q: With `O=C1C(=O)c2c(C(=O)c3ccccc3)coc2C(Cl)=C1Cl` [SKC-BF-09, 3-Benzoyl-6,7-dichloro-benzofuran-4,5-dione] as the molecule, how does the IC50 [5] read?
A: The IC50 was 45 µM.

Q: And the “EcPDF %I 10uM” value [6]?
A: Its value is 43 %I.

Q: For `COc1ccc(C(=O)c2coc3c2C(=O)C(=O)C(Cl)=C3Cl)cc1OC` [SKC-BF-10, 6,7-Dichloro-3-(3,4-dimethoxy-benzoyl)-benzofuran-4,5-dione], which “activity toward HsPDF, FP assay” value [1] is on record?
A: Its value is “potent HsPDF inhibitor”.

Q: And the “MMP-1 %I 100uM” value [7]?
A: The value was 46 %I.

Q: And the “EcPDF %I 10uM” value [6]?
A: The value was 24 %I.

Q: What about the “cytotoxicity toward cancer cell lines” value [8] of the same molecule?
A: The value was “not very active toward any cancer cell line tested”.

Q: For `COc1ccc(C(=O)c2coc3c2C(=O)C(=O)c2ccccc2-3)cc1` [SKC-NF-01, 3-(4-Methoxy-benzoyl)-naphtho[1,2-b]furan-4,5-dione], which “activity toward HsPDF, FP assay” value [1] is on record?
A: Its value is “inactive”.

Q: What about the “EcPDF %I 100uM” value [2] of the same molecule?
A: The value was 23 %I.

Q: What about the “MMP-1 %I 100uM” value [7] of the same molecule?
A: Its value is 27 %I.

Q: What about the “EcPDF %I 10uM” value [6] of the same molecule?
A: Its value is 30 %I.

Q: And the “APN %I 100uM” value [3]?
A: The value was 22 %I.

Q: Which results are given for `O=C1C(=O)c2c(C(=O)c3ccc(C(=O)O)cc3)coc2C(Cl)=C1Cl` [SKI 417519, 4-(6,7-dichloro-4,5-dioxo-4,5-dihydrobenzofuran-3-carbonyl)benzoic acid]?
A: activity against the cell lines of the panel, second generation [9]: not active toward most of the cell lines tested; IC50 [10]: 0.69 µM

Q: For `O=C(O)COc1ccc(C(=O)c2coc3c2C(=O)C(=O)C(Br)=C3Br)cc1` [SKI 417520, 2-(4-(6,7-dibromo-4,5-dioxo-4,5-dihydrobenzofuran-3-carbonyl)phenoxy)acetic acid], which “activity against the cell lines of the panel, second generation” value [9] is on record?
A: Its value is “not active toward most of the cell lines tested”.

Q: And the IC50 [10]?
A: The IC50 was 0.68 µM.

Q: With `O=C(O)COc1ccc(C(=O)c2coc3c2C(=O)C(=O)C(Cl)=C3Cl)cc1` [SKI 417521, 2-(4-(6,7-dichloro-4,5-dioxo-4,5-dihydrobenzofuran-3-carbonyl)phenoxy)acetic acid] as the molecule, how does the “activity against the cell lines of the panel, second generation” value [9] read?
A: The value was “not active toward most of the cell lines tested”.

Q: And the IC50 [10]?
A: The IC50 was 0.62 µM.

Reference: patent publication US8614237B2, “Benzofuran-4,5-diones as selective peptide deformylase inhibitors” (Sloan-Kettering Institute for Cancer Research, priority 2009, dated 2013)
